“Also recorded” adds a separate entry of the source. One block for each compound: values may come before it. Numbered stars: 1 amine (or outer) side, 2 acyl side, 3 side chain; on linkers, the order of the positions; unused ones are H or OH. Bridge positions count the residues as written; N and C are the ends. Square brackets hold non-standard residues; d marks the D form. Peptide text beside a SMILES is read from it. * marks the point of attachment. Leu(3R-OH,Nα-propionyl) = CCC(=O)N[C@H](C(=O)*)[C@H](O)C(C)C; X1 = CC(C)[C@@H](O[*:3])[C@H](N[*:1])C(=O)[*:2]; NMeT = CN[C@H](C(=O)O)[C@@H](C)O; dPhLac = O=C(O)[C@H](O)Cc1ccccc1; NMeA = CN[C@@H](C)C(=O)O; NMeDha = C=C(NC)C(=O)O
Assays:
P2Y6 [1] = biological target: T1, P2Y6 (Homo sapiens, UniProt Q15077); assay: IP1 accumulation assay in HEK293 cells transfected with wildtype P2RY6; format: cell-based; design: expressed in transfected cells; host or cells: HEK293
T1 sequence (Q15077 whole entry, the tested form may be a part): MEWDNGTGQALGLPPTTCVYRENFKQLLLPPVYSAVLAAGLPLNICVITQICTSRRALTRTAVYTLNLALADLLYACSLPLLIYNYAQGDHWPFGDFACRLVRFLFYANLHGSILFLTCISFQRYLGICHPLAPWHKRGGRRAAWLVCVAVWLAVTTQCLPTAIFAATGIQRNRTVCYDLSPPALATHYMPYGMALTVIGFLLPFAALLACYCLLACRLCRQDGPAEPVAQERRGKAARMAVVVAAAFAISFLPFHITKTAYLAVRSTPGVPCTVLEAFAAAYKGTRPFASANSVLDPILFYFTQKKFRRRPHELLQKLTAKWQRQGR
Method: To measure intracellular IP3 the HitHunter® Inositol (1,4,5) Triphosphate Assay (DiscoveRx, USA) was used according to manufacturer′s protocol. HEK293 cells stably transfected with hP2RY6 were seeded in a 384-well Black microtiter plate (15,000 cells/well) (Greiner Bio One, Germany) and incubated with indicated concentrations of UDP and PGE2-G for 20 seconds. Reaction was stopped by adding 5 µl 0.2 N perchloric acid and measurement of IP3 was performed with the Fusion AlphaScreen multilabel reader (PerkinElmer Life Sciences) according to manufacturer′s protocol. To measure IP1, HEK293 cells expressing wildtype and mutant P2Y6 were seeded into 384-well plates (5,000 cells/well) 24 h prior assay. After aspiration of the medium, cells were incubated with indicated concentrations of agonists/antagonist for 1 h. IP1 measurements using the IP-one HTFR® assay kit (Cisbio assays, USA) were performed according to manufacturer′s protocol. The assays were performed with a final concentration of 1% DMSO.

P2Y6 [2] = biological target: T1, P2Y6; assay: Functional readouts at P2Y6, summary statements; format: cell-based; conditions: Fig. 5a–d
P2Y6 [3] = biological target: T1, P2Y6; assay: Agonist-induced receptor internalization, cell surface ELISA; format: cell-based; design: expressed in transfected cells; host or cells: HEK293; conditions: Fig. 5e
Method: To estimate cell surface expression of heterologously expressed receptors carrying an N-terminal HA tag, an indirect cellular ELISA was used[57]. To determine the endogenous cell surface expression of P2Y6, the same ELISA procedure was performed with minor modifications. Briefly, after 4% paraformaldehyde fixation and blocking with 10% FBS, cells were incubated with the primary anti-P2Y6 antibody (sc-15215; Santa Cruz Biotechnology, USA) in 1:1,000 dilution for 1 h. After washing with PBS, cells were incubated with peroxidase-conjugated secondary antibody anti-goat IgG (sc-2020, Santa Cruz Biotechnology, USA) in 1:5,000 dilutions.

P2Y6 [4] = biological target: T1, P2Y6; assay: Intracellular Ca2+ measurement in HEK293 cells transfected with P2RY6; format: cell-based; design: expressed in transfected cells; host or cells: HEK293; conditions: HEK293 stably transfected with P2RY6, Fig. 5c,d
Method: (§1) RAW264.7 cells were grown in DMEM supplemented with 10% FBS, A7r5 (rat […]) cells in DMEM with 10% FBS, and A431 (human squamous carcinoma) cells in RPMI supplemented with 10% FBS. All cell lines were grown at 37 °C in a humidified 5% CO2 incubator. For functional assays, receptor constructs were heterologously expressed in human embryonic kidney (HEK293) cells upon transient or stable transfection. Cells were grown in DMEM/F12 supplemented with 10% FBS, 100 units/ml penicillin, and 100 µg/ml streptomycin. For the cAMP-inhibition assay, ERK1/2 phosphorylation assay, and Ca^2+ mobilization assay, cells were split into 96-well plates (2.0 × 10^4 cells/well) and transfected with 250 ng vector construct using MACSfectin™ (Miltenyi Biotec, Germany) according to manufacturer’s protocol. Empty vector (mock) served as the negative control. For siRNA experiments, cells were seeded in 6-well plates (4.0 × 10^5 and 6.0 × 10^5 cells/well for RAW264.7 and H1819, respectively). RAW264.7 and H1819 cells were transfected with 150 pMol of mP2RY6 siRNA and hP2RY6 siRNA (Santa Cruz Biotechnology, USA), respectively, using Viromer® Blue (Lipocalyx, Germany). As a negative control, control siRNA-A (Santa Cruz Biotechnology, USA) was used. FITC-labelled siRNA served as a transfection control.
To generate a cell line stably expressing P2Y6, HEK293 cells were seeded in 6-well plates (7.5 × 10^5 cells/well) and transfected with 3 µg vector using MACSfectin™ as transfection regent according to the manufacturer’s protocol. The pIRES-eGFP vector served as negative control. Stably transfected HEK293 cells were cultured in the presence of geneticin (500 µg/ml) for selection.
(§2) For fluorometric measurements of intracellular Ca^2+ levels with the FlexStationII instrument (Molecular Devices), RAW264.7 and H1819 cells were seeded into 96-well plates (3.0 × 10^4 cells/well) 24 h prior to assay. Ca^2+ measurements with transiently transfected HEK293 cells were performed 48 h after transfection. Cells were loaded with 200 µl Calcium 5 reagent (Explorer Kit, Molecular Devices, USA) for 60 min at 37 °C, and the assay was performed as described. Agonists and inhibitors were solved in DMSO (100x) and diluted […] in 96-well compound plates containing HBSS. 50 µl of compound solution were added to the assay plate resulting in final concentration of 1% DMSO. Fold-response was calculated by RFUmax − RFUmin (ligand)/RFUmax − RFUmin (vehicle). EC50 values were calculated by using GraphPad Prism6 software (GraphPad, USA).

P2Y12 = biological target: T2, P2Y12 (Homo sapiens, UniProt Q9H244); assay: Intracellular Ca2+ release in HEK293 cells transfected with P2RY12; format: cell-based; conditions: HEK293 transfected with P2RY12, Fig. 3f
T2 construct: expressed in transfected cells; host or cells: HEK293
T2 sequence (Q9H244 whole entry, species assumed): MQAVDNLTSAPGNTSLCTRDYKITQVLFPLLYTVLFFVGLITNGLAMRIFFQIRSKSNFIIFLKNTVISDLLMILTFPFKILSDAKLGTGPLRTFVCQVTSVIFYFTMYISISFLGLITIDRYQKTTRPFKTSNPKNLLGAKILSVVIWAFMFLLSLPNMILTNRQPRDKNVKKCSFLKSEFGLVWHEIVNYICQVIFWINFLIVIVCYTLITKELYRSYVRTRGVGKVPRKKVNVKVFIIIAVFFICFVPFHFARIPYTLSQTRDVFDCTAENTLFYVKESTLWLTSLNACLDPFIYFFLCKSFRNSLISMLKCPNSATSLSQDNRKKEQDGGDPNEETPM
Method: as §2

P2Y1 = biological target: T3, P2Y1 (Homo sapiens, UniProt P47900); assay: Intracellular Ca2+ release in HEK293 cells transfected with P2RY1; format: cell-based; conditions: HEK293 transfected with P2RY1, Fig. 3f
T3 construct: expressed in transfected cells; host or cells: HEK293
T3 sequence (P47900 whole entry, species assumed): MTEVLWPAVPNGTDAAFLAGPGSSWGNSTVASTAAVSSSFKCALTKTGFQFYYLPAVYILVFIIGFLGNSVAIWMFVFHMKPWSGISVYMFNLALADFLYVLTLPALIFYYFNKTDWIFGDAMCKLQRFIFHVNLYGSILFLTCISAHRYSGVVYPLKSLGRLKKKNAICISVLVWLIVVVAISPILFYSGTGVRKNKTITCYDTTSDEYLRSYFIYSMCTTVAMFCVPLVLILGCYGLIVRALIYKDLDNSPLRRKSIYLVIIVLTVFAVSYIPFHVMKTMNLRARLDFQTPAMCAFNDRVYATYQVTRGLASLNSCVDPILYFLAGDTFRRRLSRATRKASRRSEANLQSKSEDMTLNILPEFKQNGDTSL
Method: as §2

RAW264.7 cells = conditions: RAW264.7 cells; cited from earlier work
[5] = biological target: T4, cannabinoid receptor 2 (Cnr2) (Homo sapiens, UniProt P34972); assay: Intracellular Ca2+ measurement in CNR2-transfected HEK293 cells; format: cell-based; conditions: 200 nM of 2-AG, Fig. 2c
T4 construct: expressed in transfected cells; host or cells: HEK293
T4 sequence (P34972 whole entry): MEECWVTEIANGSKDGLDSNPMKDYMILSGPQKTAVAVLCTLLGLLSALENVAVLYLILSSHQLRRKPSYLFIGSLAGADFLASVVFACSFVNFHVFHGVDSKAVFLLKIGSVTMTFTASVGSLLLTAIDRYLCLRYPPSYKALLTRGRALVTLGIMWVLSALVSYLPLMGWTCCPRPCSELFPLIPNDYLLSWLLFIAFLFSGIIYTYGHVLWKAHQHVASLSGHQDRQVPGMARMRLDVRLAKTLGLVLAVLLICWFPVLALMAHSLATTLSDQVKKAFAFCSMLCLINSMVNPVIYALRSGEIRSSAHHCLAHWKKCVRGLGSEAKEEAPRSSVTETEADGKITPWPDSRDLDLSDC
Method: as §1, with “RAW264.7 and H1819 cells were transfected with 150 pMol of mP2RY6 siRNA and hP2RY6 siRNA (Santa Cruz Biotechnology, USA), respectively, using Viromer® Blue (Lipocalyx, Germany). As a negative control, control siRNA-A (Santa Cruz Biotechnology, USA) was used. FITC-labelled siRNA served as a transfection control.” left out
For fluorometric measurements of intracellular Ca^2+ levels with the FlexStationII instrument (Molecular Devices), RAW264.7 and H1819 cells were seeded into 96-well plates (3.0 × 10^4 cells/well) 24 h prior to assay. […] Fold-response was calculated by RFUmax − RFUmin (ligand)/RFUmax − RFUmin (vehicle). EC50 values were calculated by using GraphPad Prism6 software (GraphPad, USA).

P2Y6 [6] = biological target: T1, P2Y6; assay: ERK1/2 phosphorylation (AlphaScreen SureFire) in P2RY6-transfected HEK293 cells; format: cell-based; design: expressed in transfected cells; host or cells: HEK293; conditions: HEK293 cells stably transfected with P2RY6, Fig. 3e
Method: Cells were transferred to serum-free medium 2 h prior to assay. Ligands and controls (10 µl of 10× concentrates) were added to 90 µl medium and incubated for 5 min at 37 °C. The final concentration of DMSO was 0.2%. The reaction was stopped by aspiration of the medium and addition of 50 µl lysis buffer (PerkinElmer Life Sciences). To measure ERK1/2 phosphorylation, the AlphaScreen® SureFire ERK 1/2 assay kit (PerkinElmer Life Sciences) was used with the high sensitivity protocol. Phosphorylated ERK1/2 was measured in 384-well white OptiPlate microplates (PerkinElmer Life Sciences) with the Fusion AlphaScreen multilabel reader (PerkinElmer Life Sciences).

SMILES: C=C1C(=O)N[C@@H](C)C(=O)N(C)[C@@H](C)C(=O)N[C@@H]([C@H](OC(=O)[C@@H](NC(=O)CC)[C@H](O)C(C)C)C(C)C)C(=O)N(C)[C@@H]([C@@H](C)OC)C(=O)O[C@H](C(C)C)[C@H](NC(C)=O)C(=O)O[C@H](Cc2ccccc2)C(=O)N1C [UBO] (Ac-[X1][dPhLac][NMeDha]A[NMeA][X1](Leu(3R-OH,Nα-propionyl))[NMeT](Me); ester 1-C)
block of IP formation after stimulation with UDP and PGE2-G (P2Y6 [1]; IP1 accumulation, P2RY6-transfected HEK293, Fig. 3d): significantly block

SMILES: S=C=Nc1cccc(NC(=S)NCCCCNC(=S)Nc2cccc(N=C=S)c2)c1 [MRS2578]
effect of antagonist on UDP- and PGE2-G-triggered IP1 accumulation (P2Y6 [1]; HEK293 stably transfected with P2RY6, increasing antagonist concentrations, Fig. 5a,b): reduced both the efficacies and potencies; also recorded: reduced both, the efficacies and potencies
mode of antagonism (P2Y6 [2]): antagonist with mixed properties (competitive and non-competitive)
effect of antagonist on agonist-induced internalization (P2Y6 [3]): blocked the internalization
effect of antagonist on UDP- and PGE2-G-triggered Ca2+ release (P2Y6 [4]): same effects; also recorded: reduced both, the efficacies and potencies

Ca2+ release (P2Y12): led to Ca^2+ release
Ca2+ release (P2Y1): led to Ca^2+ release
SMILES: Nc1ncnc2c1ncn2[C@@H]1O[C@H](COP(=O)(O)OP(=O)(O)O)[C@@H](O)[C@H]1O [ADP]

SMILES: CCCCC[C@H](O)/C=C/[C@H]1C(=O)C[C@H](O)[C@@H]1C/C=C\CCCC(=O)OC(CO)CO [PGD2-G]
effect in Ca2+ measurements (RAW264.7 cells): no effect

SMILES: CCCCC/C=C\C/C=C\C/C=C\C/C=C\CCCC(=O)OC(CO)CO [2-AG, 2-arachidonoylglycerol]
effect on intracellular Ca2+ [5]: robust intracellular Ca^2+ increase; also recorded: elevated intracellular Ca^2+

ERK1/2 phosphorylation response (P2Y6 [6]): no response
SMILES: CCCCC[C@H](O)/C=C/[C@@H]1[C@@H](C/C=C\CCCC(=O)OC(CO)CO)[C@@H](O)C[C@H]1O [PGF2α-G]
effect in Ca2+ measurements (RAW264.7 cells): no effect

ERK1/2 phosphorylation response (P2Y6 [6]): no effect
SMILES: CCCCC[C@H](O)/C=C/[C@@H]1[C@@H](C/C=C\CCCC(=O)O)[C@@H](O)C[C@H]1O [PGF2α]
effect in Ca2+ measurements (RAW264.7 cells): led to Ca^2+ release

ERK1/2 phosphorylation response (P2Y6 [6]): no response
SMILES: CCCCC[C@H](O)/C=C/[C@H]1[C@H](O)CC(=O)[C@@H]1C/C=C\CCCC(=O)O [PGE2]
effect in Ca2+ measurements (RAW264.7 cells): no effect
